Data reported in PubChem BioAssay AID434987 (Southern Research Specialized Biocontainment Screening …, 2010).
Calls of active or inactive are those of the source. No rule for the calls is given here.

Tested on: M. tuberculosis H37Rv growth inhibition with meropenem
Test: dose response, H37Rv, with and without meropenem (AID 434987);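 also: growth over 7 days at 37 °C before Alamar Blue read on day 9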
[1] = M. tuberculosis H37Rv growth inhibition, measured here: IC50 without meropenem
[2] = M. tuberculosis H37Rv growth inhibition, measured here: IC90 without meropenem
[3] = measured here: IC90 with meropenem

| SMILES | IC50 | IC50 [1] [µM] | IC90 [2] [µM] | IC90 [3] [µM] |
| --- | --- | --- | --- | --- |
| O=C1C2ON(c3ccc(Br)cc3)C(c3cccnc3)C2C(=O)N1C1CCCCC1 (configuration not stated) | > 100 µM (inactive) | > 100 | > 100 | > 100 |
| CC1CN(C2CCCCC2)c2nc3c(c(=O)[nH]c(=O)n3C)n2C1 (configuration not stated) | > 100 µM (inactive) | > 100 | > 100 | > 100 |
| CCc1ccc2c(c1)C(c1ccc([N+](=O)[O-])cc1)=NNC(c1ccc(C)cc1)=N2 | > 100 µM (inactive) | > 100 | > 100 | > 100 |
| Cc1c(-c2ccncc2)oc2ccc(Br)cc2c1=O | > 100 µM (inactive) | > 100 | > 100 | > 100 |
| O=C(O)CCN1C(=O)/C(=C/c2ccc(-c3nc4ccccc4s3)o2)SC1=S | 38.3 µM (inactive) | 60.1 | > 100 | 78.4 |
| O=C(Cc1cccc2ccccc12)N/N=C/c1ccc(O)c([N+](=O)[O-])c1 | 17.3 µM (inactive) | 27.2 | 47.2 | 31.6 |
| O=C(CCC(=O)Nc1ccccc1)NNC(=O)c1ccco1 | > 100 µM (inactive) | > 100 | > 100 | > 100 |
| CCCc1cc(C(=O)Nc2ccc(C(C)=O)cc2)no1 | 11.7 µM (inactive) | 24.4 | > 100 | 48.8 |
| O=C(Nc1cccc2ccccc12)N1CCCN(c2c(Cl)cncc2Cl)CC1 | > 100 µM (inactive) | > 100 | > 100 | > 100 |
| CSc1ncc(Cl)c(C(=O)Nc2cccc3ccccc23)n1 | 8.49 µM | 43.5 | > 100 | > 100 |
| Cc1ccc(S(=O)(=O)N[C@H](C(=O)OCn2nnc3ccccc3c2=O)C(C)C)cc1 | > 100 µM (inactive) | > 100 | > 100 | > 100 |
| CN(C)CC[C@@H](c1ccc(Br)cc1)c1ccccn1 | > 100 µM (inactive) | > 100 | > 100 | > 100 |
| COc1ccc(Br)cc1/C=N/NC(=O)CNC(=O)/C=C/c1ccccc1 | > 100 µM (inactive) | > 100 | > 100 | > 100 |
| Cc1cc(Br)ccc1NC(=O)c1ccccc1-c1ccccc1 | 14.1 µM | > 100 | > 100 | > 100 |
| O=C1OC(/C=C/c2ccccc2)=NC/1=C/c1ccco1 | 0.691 µM | 3.11 | 13 | 13.9 |
| CN(C)C(=O)c1ccc(-n2nc(C(F)(F)F)c3c2CCCC3)cc1 | > 100 µM (inactive) | > 100 | > 100 | > 100 |
| COc1cc(NC(=O)c2ccccc2Cl)ccc1NC(=O)c1ccco1 | 19.6 µM (inactive) | 32.9 | > 50 | > 25 |
| COC(=O)c1c(CSc2cccc(C)c2)noc1C(=O)NCc1ccco1 | > 100 µM (inactive) | > 100 | > 100 | > 100 |
| COc1ccc(C[C@H](C)NC[C@@H](O)c2ccc(O)c(NC=O)c2)cc1 | > 100 µM (inactive) | > 100 | > 100 | > 100 |
| CCOc1cccc(=O)c2c(C)n(Cc3ccccc3)c(C)c12 | > 100 µM (inactive) | > 100 | > 100 | > 100 |

| SMILES | IC50 | IC50 [1] [µM] | IC90 [2] [µM] | IC90 [3] [µM] |
| --- | --- | --- | --- | --- |
| O=c1oc(-c2ccco2)nc2sc3c(c12)CCCCC3 | 9.28 µM | 67.6 | 90.2 | 38.5 |
| C=CCC(Nc1ccccc1)C12C=CC(O1)C(C(=O)OC)=C2C(=O)OC (configuration not stated) | > 100 µM (inactive) | > 100 | > 100 | > 100 |
| CCOC(=O)c1sc(NC(=O)CN2CCN(c3ccc(OC)cc3)CC2)nc1C | 68.2 µM (inactive) | 98.9 | > 100 | > 100 |
| CCOc1ccc(-c2nnc(-c3ccc(OC)cc3)o2)cc1 | 4.65 µM | 35.6 | > 100 | > 100 |
| Cc1cc(=S)nc(-c2ccccn2)[nH]1 | 13.1 µM | 48.3 | 50.4 | 19.7 |
| COc1ccc(-c2cc(=Nc3ccc(C)cc3)c3ccccc3o2)cc1 | 78.3 µM (inactive) | > 100 | > 100 | 98.3 |
| CCCC1=C/C(=C/c2ccc(-c3ccccc3OC)o2)C(=O)O1 | 29.3 µM (inactive) | 55.5 | > 100 | > 100 |
| Cc1ccccc1OCC(=O)N/N=C/c1cccc(Oc2ccc([N+](=O)[O-])cc2[N+](=O)[O-])c1 | 1.14 µM | 4.24 | 47.8 | 5.4 |
| CCN(CC)CCCNC(=O)c1c(O)c2ccccc2n(Cc2ccccc2)c1=O | 12.6 µM (inactive) | 23.2 | 32.7 | 13.8 |
| O=C(C1=C[C@@H](c2ccc(Br)cc2)C[C@@H](OCc2ccc(CO)cc2)O1)N1CCN(Cc2ccc3c(c2)OCO3)CC1 | 79.3 µM (inactive) | > 100 | > 100 | > 100 |
| CCOCC(=O)N1CCN(c2ccc(F)cc2)CC1 | 33.8 µM | 84.1 | > 100 | > 100 |
| CCc1ccc(NC(=S)Nc2ccc3[nH]c(=O)[nH]c3c2)cc1 | > 100 µM (inactive) | > 100 | > 100 | > 100 |
| COc1cc(/C=C/C(=O)NC(C)(C)C)ccc1OCc1ccccc1 | > 100 µM (inactive) | > 100 | > 100 | > 100 |
| CN(C)c1ccc(S(=O)(=O)NCC(=O)OCC(=O)Nc2cccc(Cl)c2)cc1[N+](=O)[O-] | > 100 µM (inactive) | > 100 | > 100 | > 100 |
| COc1ccc(CNC(=O)c2sc3nc4c(c(C(F)(F)F)c3c2N)CCC4)cc1 | 7.76 µM (inactive) | 10.5 | > 25 | > 100 |
| CCOc1ccc(N=c2cc(-c3ccc(OC)cc3)oc3ccccc23)cc1 | 45.2 µM (inactive) | 40.1 | 44.4 | 50.3 |
| CCNc1nc(CN2CCCCC2)nc2scc(-c3ccccc3)c12 | 8.75 µM | 47.2 | > 100 | 57.3 |
| Cc1ccc(-n2ncc(-c3nnc(SCC(=O)NC4CCCC4)o3)c2N)cc1C | > 100 µM (inactive) | > 100 | > 100 | > 100 |
| O=C1N/C(=C\c2ccc(O)cc2)C(=O)c2ccccc21 | 21.9 µM | 59.6 | > 100 | > 100 |
| NC(=S)N/N=C/c1ccc([N+](=O)[O-])cc1 | 31.7 µM | > 100 | > 100 | > 100 |

| SMILES | IC50 | IC50 [1] [µM] | IC90 [2] [µM] | IC90 [3] [µM] |
| --- | --- | --- | --- | --- |
| CCCCCC(=O)Nc1cccc(C2=NOC3(C2)C[C@@H](C(N)=O)N(C(=O)CC(c2ccccc2)c2ccccc2)C3)c1 (some centres not stated) | 51.6 µM (inactive) | > 100 | > 100 | > 100 |
| CCN(CC)S(=O)(=O)c1ccc(N/N=C(\C)c2ccc(OC)cc2O)nc1 | 1.07 µM | 5.71 | 11.3 | 10.4 |
| Cc1nc2ccccc2c(=O)n1/N=C/c1c(O)ccc2oc3c(c12)CCCC3 | > 100 µM (inactive) | > 100 | > 100 | > 100 |
| CCCc1cc(C(=O)OCC(=O)N2CCN(c3ccc(OC)cc3)CC2)sc1C | > 100 µM (inactive) | > 100 | > 100 | > 100 |
| O=C(Oc1c(-c2ccccc2)c(=O)n2c3c(cccc13)CC2)c1cccc([N+](=O)[O-])c1 | 3.97 µM | 30.5 | 85.1 | 62.3 |
| CCOc1ccc2nc(SC3CC(=O)N(c4cccc(OC)c4)C3=O)sc2c1 (configuration not stated) | 23.5 µM (inactive) | 44.2 | 49.9 | 25.7 |
| COc1cccc(/C=N/Nc2nc(N3CCCC3)nc(N3CCCC3)n2)c1O | 8.14 µM | 25.1 | 63.7 | 36.1 |
| Cc1ccccc1OCC(=O)Nc1ccccc1N1CCCCC1 | 5.94 µM | 96.4 | > 100 | 13.5 |
| O=C(CSc1ncnc2c1cnn2-c1ccccc1)Nc1ccc2c(c1)OCO2 | 27.3 µM (inactive) | 49.1 | > 100 | > 100 |
| C=CCN=c1scc(-c2ccc(F)cc2)n1/N=C/c1ccccn1 | 33 µM | 92.8 | > 100 | 71.7 |
| C=CCn1c(SCc2ccc(C(=O)Nc3nccs3)cc2)nnc1-c1ccc(C)c(Cl)c1 | 95.3 µM (inactive) | > 100 | > 100 | > 100 |
| Cc1cccc(-n2nc([N+](=O)[O-])c(=NC3CCN(Cc4ccccc4)CC3)n2O)c1 | 25.9 µM (inactive) | 45.8 | 49 | 30.5 |
| O=C(Nc1ccccc1Br)c1cccc2ccccc12 | > 100 µM (inactive) | > 100 | > 100 | > 100 |
| Cn1c(/C=C/c2ccc(Cl)cc2)c([N+](=O)[O-])c(=O)n(C)c1=O | > 100 µM (inactive) | > 100 | > 100 | > 100 |
| CCN(CC)C(=O)CSc1nnc2nnc3cc(OC)ccc3n12 | 12 µM (inactive) | 27.7 | 51.7 | 13.4 |
| COCCNC(=S)N/N=C(\C)c1cccc(OC)c1 | 17.8 µM | 47.1 | > 100 | > 100 |
| CCN(CC)c1ccc(C(=O)n2cnc3ccccc32)cc1 | 70.3 µM (inactive) | 91.6 | > 100 | > 100 |
| Cc1cc2c(=O)oc(-c3ccc(Br)cc3)nc2s1 | > 100 µM (inactive) | > 100 | > 100 | > 100 |
